Reference: patent publication US7393812B2, “Methylidene mevalonates and their use as herbicides” (Dow AgroSciences LLC, priority 2004, dated 2008)

Key:
Assay in all cases: General herbicidal evaluation, preemergence
Assay type in all cases: in vivo
Conditions in all cases: 16 days after treatment
[1] = test system: barnyardgrass (Echinochloa crusgalli, ECHCG)
Excerpt: (§1) Applications of methylidene mevalonate were made either to the foliage (postemergence) or soil (preemergence). Seeds of sunflower (Helianthus annus, HELAN), morningglory (Ipomoea hederacea, IPOHE) velvetleaf (Abutilon theophrasti, ABUTH), pigweed (Amaranthus spp., AMARE), barnyardgrass (Echinochloa crusgalli, ECHCG), giant foxtail (Setaria faberi, SETFA), wild oats (Avena fatua, AVEFA), and blackgrass (Alopecurus myosuroides, ALOMY) were planted in mineral soil (sandy clay loam, 51% sand, 26% silt, 23% clay, 2.8% O.M., pH 7.8) and Metro-mix (Bulk Sak, Inc., Malvern, Ark., USA) for preemergence and postemergence treatments, respectively. Pots receiving preemergence treatments were watered immediately following application. Prior to postemergence treatment, plants were grown in the greenhouse (16 h photoperiod, 27 C) and thinned to a density of 2 to 15 plants pot^−1, depending on species. At the time of postemergence applications, plants were 8-12 days old, 3 to 10 cm in height, and in the 1- to 3-true-leaf stage. Natural light in the greenhouse was supplemented with metal halide lights that provided an average photosynthetic photon flux of 500 μmol m^−2s^−1.
(§2) A sample of sodium methylidene mevalonate was dissolved in 4 mL of distilled water followed by 10 mL of formulation stock “B” (200 mL isopropanol, 20 mL crop oil concentrate, 0.4 g Triton X-155 [Sigma Chemical Co., St. Louis, Mo. 62718], and 78 mL water). This was followed by three 1:1 (v/v) serial dilutions using formulation stock “C” (100 mL isopropanol, 10 mL crop oil concentrate, 0.2 g Triton X-155, 390 mL water, 485 mL acetone and 15 mL DMSO).
(§3) Treatments were made at four different doses (4000, 2000, 1000, and 500 g ha^−1). For preemergence treatments, 1.75 mL of spray solution were applied to the soil surface in each pot using a glass Cornwall syringe fitted with a Teejet SS8001E flat-fan nozzle (Spraying Systems Co., Wheaton, Ill. 60189-7900). For postemergence applications, the foliage of the test plants was sprayed using a DeVilbiss atomizer (DeVilbiss Health Car, Inc., Somerset, Pa. 15501) driven by compressed air at a pressure of 22 kPa. Untreated controls were included.
(§4) Pots were placed in the greenhouse following compound application. Pots from postemergence and preemergence were sub-irrigated and top-watered, respectively, as needed for the duration of the test. Visual injury ratings were taken 9 and 16 days after treatment for postemergence and preemergence applications, respectively, on a 0 to 100 scale where 0 represents no injury and 100 represents complete necrosis.

[2] = test system: blackgrass (Alopecurus myosuroides, ALOMY)
Excerpt: as §1, §2, §3, §4

[3] = test system: giant foxtail (Setaria faberi, SETFA)
Excerpt: as §1, §2, §3, §4

[4] = test system: morningglory (Ipomoea hederacea, IPOHE)
Excerpt: as §1, §2, §3, §4

[5] = test system: pigweed (Amaranthus spp., AMARE)
Excerpt: as §1, §2, §3, §4

[6] = test system: sunflower (Helianthus annus, HELAN)
Excerpt: as §1, §2, §3, §4

[7] = test system: velvetleaf (Abutilon theophrasti, ABUTH)
Excerpt: as §1, §2, §3, §4

[8] = test system: wild oats (Avena fatua, AVEFA)
Excerpt: as §1, §2, §3, §4

In the case of `C=C(CO)C(C)(O)CC(=O)O` (centres unmarked) [methylidene mevalonate, 3-hydroxy-4-(hydroxymethyl)-3-methylpent-4-enoic acid], the “Visual Injury (%)” value ([1]; 0.5 kg ha^−1, ECHCG) was 0%, the “Visual Injury (%)” value ([1]; 1.0 kg ha^−1, ECHCG) was 0% and the “Visual Injury (%)” value ([1]; 2.0 kg ha^−1, ECHCG) was 20%. The “Visual Injury (%)” value ([1]; 4.0 kg ha^−1, ECHCG) was 30%, the “Visual Injury (%)” value ([2]; 0.5 kg ha^−1, ALOMY) was 0% and the “Visual Injury (%)” value ([2]; 1.0 kg ha^−1, ALOMY) was 0%. The “Visual Injury (%)” value ([2]; 2.0 kg ha^−1, ALOMY) was 20%, the “Visual Injury (%)” value ([2]; 4.0 kg ha^−1, ALOMY) was 30% and the “Visual Injury (%)” value ([3]; 0.5 kg ha^−1, SETFA) was 0%. For the same compound, the “Visual Injury (%)” value ([3]; 1.0 kg ha^−1, SETFA) was 0%, the “Visual Injury (%)” value ([3]; 2.0 kg ha^−1, SETFA) was 20% and the “Visual Injury (%)” value ([3]; 4.0 kg ha^−1, SETFA) was 30%. For the same compound, the “Visual Injury (%)” value ([4]; 0.5 kg ha^−1, IPOHE) was 0%, the “Visual Injury (%)” value ([4]; 1.0 kg ha^−1, IPOHE) was 0% and the “Visual Injury (%)” value ([4]; 2.0 kg ha^−1, IPOHE) was 0%. The “Visual Injury (%)” value ([4]; 4.0 kg ha^−1, IPOHE) was 20%, the “Visual Injury (%)” value ([5]; 0.5 kg ha^−1, AMARE) was 0% and the “Visual Injury (%)” value ([5]; 1.0 kg ha^−1, AMARE) was 0%. The “Visual Injury (%)” value ([5]; 2.0 kg ha^−1, AMARE) was 30%, the “Visual Injury (%)” value ([5]; 4.0 kg ha^−1, AMARE) was 40% and the “Visual Injury (%)” value ([6]; 0.5 kg ha^−1, HELAN) was 20%. For the same compound, the “Visual Injury (%)” value ([6]; 1.0 kg ha^−1, HELAN) was 30%, the “Visual Injury (%)” value ([6]; 2.0 kg ha^−1, HELAN) was 30% and the “Visual Injury (%)” value ([6]; 4.0 kg ha^−1, HELAN) was 60%. For the same compound, the “Visual Injury (%)” value ([7]; 0.5 kg ha^−1, ABUTH) was 0%, the “Visual Injury (%)” value ([7]; 1.0 kg ha^−1, ABUTH) was 0% and the “Visual Injury (%)” value ([7]; 2.0 kg ha^−1, ABUTH) was 20%. The “Visual Injury (%)” value ([7]; 4.0 kg ha^−1, ABUTH) was 30%, the “Visual Injury (%)” value ([8]; 0.5 kg ha^−1, AVEFA) was 0% and the “Visual Injury (%)” value ([8]; 1.0 kg ha^−1, AVEFA) was 0%. For the same compound, the “Visual Injury (%)” value ([8]; 2.0 kg ha^−1, AVEFA) was 0% and the “Visual Injury (%)” value ([8]; 4.0 kg ha^−1, AVEFA) was 10%.
